According to patent publication US20110243846A1, “BENZOTHIAZOLE AMIDES FOR DETECTION OF AMYLOID BETA” (priority 2008, published 2011):

Test system: Aβ plaques in cortex sections of Alzheimer's disease patients
Assay: Autoradiographical analysis of binding to human brain sections
Conditions: F-18 labelled compound; for Autoradiographical analysis of binding to cryosections from cortex: cryosections from cortex of AD patients vs controls without Aβ plaques (HC/FTD)
Text: Fresh frozen as well as paraffin embedded sections of the frontal lobe from Alzheimer's dementia patients, frontotemporal dementia patients and age matched controls were used for the study. Frozen sections, sliced at 18 μm thickness on a cryostate (Leica, Germany) and paraffin sections, sliced on a sliding microtom (Leica) at a thickness of 6 μm, were mounted onto glass slides (Superfrost Plus, Fa.Menzel, Braunschweig Germany). Frozen sections were allowed to adhere to the slides for several nights at −20° C. The paraffin sections were deparaffinized using routine histological methods. For binding studies sections were incubated with the F-18 labeled test compound at 10 Bq/μl diluted in 25 mM Hepes buffer, pH 7.4, 0.1% (BSA) (200-300 μl/slide) for 1.5 hour at room temperature in a humidified chamber. For blocking experiments a 1000-fold access of the unlabeled test substance was added to the incubation mixture. After hybridization, sections were washed four times with Hepes buffer, 0.1% BSA (or alternatively two times with 40% ethanol) and finally dipped two times into dest. water for 10 sec. The air-dried sections were exposed to imaging plates and signals were detected by a phosphoimager device (Fuji BAS5000).

Row | SMILES | Autoradiographical analysis of binding to cryosections from cortex | Autoradiographical analysis of binding to paraffine-sections from cortex (paraffine-sections from cortex of AD patients vs controls without Aβ plaques (HC/FTD))
1 | COc1ccc2nc(NC(=O)c3ccc([18F])cc3)sc2c1 [compound 1f, 4-(^18F)fluoro-N-(6-methoxy-1,3-benzothiazol-2-yl)benzamide] | Specific binding in plaque-rich regions of AD samples | –
2 | COc1ccc2nc(NC(=O)c3cc([18F])ccn3)sc2c1 [compound 2c, 4-(^18F)fluoro-N-(6-methoxy-1,3-benzothiazol-2-yl)pyridine-2-carboxamide] | Specific binding in plaque-rich regions of AD samples | –
3 | COc1ccc2nc(NC(=O)c3cccc([18F])n3)sc2c1 [compound 3c, 6-[^18F]-fluoro-N-(6-methoxy-1,3-benzothiazol-2-yl)pyridine-2-carboxamide] | – | Specific binding in plaque-rich regions of AD samples
